The record followed here is ChEMBL document CHEMBL1135403, “Nanomolar inhibitors of Staphylococcus aureus methionyl tRNA synthetase with potent antibacterial activity against gram-positive pathogens” (J Med Chem, 2002).

Converted amounts (≈) assume the structure as drawn.

For orientation: MIC means the least concentration at which growth counts as inhibited. Low values mean greater potency, high ones weaker potency. In general, MIC90 refers to the lowest concentration that inhibits either 90% of growth or 90% of the strains tested, depending on the study. As a reminder, the IC50 is the concentration that inhibits the measured activity by half. For orientation: Ki means the dissociation constant of the complex between target and ligand, obtained from inhibition or displacement.

Test [1] relates to Enterococcus faecalis. The test is described as follows: In vitro minimum inhibitory activity against Enterococcus faecalis 7 strain. The format is functional.
The test system of test [2] is Staphylococcus aureus. The test is described as follows: In vitro minimum inhibitory activity against Staphylococcus aureus Oxford strain. The format is functional.
For test [3], the system named is Staphylococcus aureus. Put plainly: MIC required to inhibit 90% of the growth of Staphylococcus aureus (n = 31). Type of test: functional.
Test [4] concerns Enterococcus faecalis. The test is described as follows: In vitro minimum inhibitory activity against Enterococcus faecalis 1 strain. Type of test: functional.
Test [5] relates to Enterococcus faecalis. The test is described as follows: MIC required to inhibit 90% of the growth of Enterococcus faecalis (n = 10). The format is functional.
Test [6] deals with Enterococcus faecium. Put plainly: MIC required to inhibit 90% of the growth of Enterococcus faecium (n = 10). The format is functional.
For test [7], the system named is Staphylococcus epidermidis. Put plainly: MIC required to inhibit 90% of the growth of Staphylococcus epidermidis (n = 10). Type of test: functional.
Test [8] concerns Staphylococcus aureus. Put plainly: In vitro inhibitory concentration against Staphylococcus aureus Methionyl tRNA synthetase. The format is functional.
For test [9], the system named is Staphylococcus aureus. The test is described as follows: In vitro minimum inhibitory activity against Staphylococcus aureus WCUH29 strain. Type of test: functional.
Test [10] concerns Staphylococcus aureus. Put plainly: In vivo efficacy against Staphylococcus aureus WCUH29 in a Groin Abscess infection in rats at a dose of 21 mg/kg; log10 cfu. The format is functional.
For test [11], the system named is Nucleic Acid. Put plainly: In vitro inhibitory concentration against tRNA synthetases, in a pyrophosphate exchange assay. Type of test: functional, Staphylococcus aureus.
In test [12] the test system is Staphylococcus aureus. The test is described as follows: In vitro antibacterial activity and competitive kinetics with respect to methionine. The format is functional, organism-based.
Test [13] relates to Staphylococcus aureus. Put plainly: In vivo efficacy against Staphylococcus aureus WCUH29 in a Groin Abscess infection in rats at a dose of 50 mg/kg; log10 cfu. The format is functional.

`Oc1cc(NCCCNC2CCNc3c(Br)cc(Br)cc32)nc2ccccc12` (configuration not stated): the MIC in test [1] is less than 0.06 µg/mL; in test [2], less than 0.06 µg/mL; in [4], less than 0.06 µg/mL; in test [9], 0.125 µg/mL (≈ 0.247 µM). In addition, the MIC90 in [3] is 0.5 µg/mL (≈ 0.988 µM); in test [5], 0.03 µg/mL (≈ 0.0593 µM); in [6] it was less than 0.016 µg/mL; in test [7], 0.5 µg/mL (≈ 0.988 µM). In addition, the midpoint of inhibition in test [8], the IC50, lay at 8 nM.

In the case of `CCc1cc(I)c2c(c1)C(NCCCNc1cc(=O)c3ccccc3[nH]1)CCN2` (configuration not stated), the Bacterial counts in test [10] is listed as 3.9. For the same compound, the MIC in test [1] is 0.125 µg/mL (≈ 0.249 µM); in [2], 0.25 µg/mL (≈ 0.498 µM); in test [4] it was less than 0.06 µg/mL; in test [9], 0.25 µg/mL (≈ 0.498 µM). For the same compound, the MIC90 in test [3] was determined as 1 µg/mL (≈ 1.99 µM); in test [5], 0.25 µg/mL (≈ 0.498 µM); in test [6], 0.06 µg/mL (≈ 0.119 µM); in test [7] it was 1 µg/mL (≈ 1.99 µM). This compound also returned an IC50 in test [11] of 1.4 nM.

As for `O=c1cc(NCCCNCc2ccc(Cl)c(Cl)c2)[nH]c2ccccc12`, the MIC in [1] turned out to be 2 µg/mL (≈ 5.32 µM); in [2], 4 µg/mL (≈ 10.6 µM); in test [4], 2 µg/mL (≈ 5.32 µM); in test [9], 8 µg/mL (≈ 21.3 µM). In test [8], this compound registered a concentration for half-maximal inhibition (IC50) of 16 nM. The affinity in test [12], expressed as Ki, was 5 nM.

Turning to `CC1(C)S[C@@H]2[C@H](NC(=O)[C@H](N)c3ccc(O)cc3)C(=O)N2[C@H]1C(=O)O` [AMOXICILLIN], the MIC was 0.5 µg/mL (≈ 1.37 µM) in test [1], 0.125 µg/mL (≈ 0.342 µM) in [2], 0.5 µg/mL (≈ 1.37 µM) in [4] and greater than 64 µg/mL in test [9]. The MIC90 in test [3] is greater than 16 µg/mL; in test [5] it was greater than 16 µg/mL; in test [6] it was greater than 16 µg/mL; in [7], 8 µg/mL (≈ 21.9 µM).

In turn, `CC[C@H]1OC(=O)[C@H](C)[C@@H](O[C@H]2C[C@@](C)(OC)[C@@H](O)[C@H](C)O2)[C@H](C)[C@@H](O[C@@H]2O[C@H](C)C[C@H](N(C)C)[C@H]2O)[C@](C)(O)C[C@@H](C)C(=O)[C@H](C)[C@@H](O)[C@]1(C)O` [ERYTHROMYCIN] came in with a Bacterial counts in test [13] of 3.7.

For the compound `C/C(=C\C(=O)OCCCCCCCCC(=O)O)C[C@@H]1OC[C@H](C[C@@H]2O[C@H]2[C@@H](C)[C@H](C)O)[C@@H](O)[C@H]1O` [MUPIROCIN], the minimal inhibitory concentration (MIC) in test [1] came to 64 µg/mL (≈ 128 µM); in test [4], 64 µg/mL (≈ 128 µM); in test [9], 0.25 µg/mL (≈ 0.499 µM).
